13 molecules from PubChem BioAssay AID328 (DTP/NCI, 2004) can be followed below.

The test system of this assay is BDF1 mice, P388 leukemia ip, median survival T/C. As to the kind of experiment: NCI In Vivo Anticancer Drug Screen. Data for tumor model P388 Leukemia (intraperitoneal) in B6D2F1 (BDF1) mice. As to conditions: endpoint: median survival time, higher = longer survival. An outline of the steps:
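Antitumour effect was judged in vivo: survival in drug-treated mice, normalised to that of vehicle-dosed controls, gives the reported T/C.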

[1] abbreviates: dose: 12.5 mg/kg/injection, schedule: Q04DX003 (ip), vehicle: saline.
[2] abbreviates: dose: 50.0 mg/kg/injection, schedule: Q04DX003 (ip), vehicle: saline.
The mark [3] stands for this setting: dose: 100.0 mg/kg/injection, schedule: Q04DX003 (ip), vehicle: saline.
[4] abbreviates: dose: 200.0 mg/kg/injection, schedule: Q04DX003 (ip), vehicle: saline.
[5] abbreviates: dose: 400.0 mg/kg/injection, schedule: Q04DX003 (ip), vehicle: saline.
Where [6] appears, read: dose: 50.0 mg/kg/injection, schedule: Q01DX009 (ip), vehicle: saline with Tween-80.
Setting [7] is: dose: 100.0 mg/kg/injection, schedule: Q01DX009 (ip), vehicle: saline with Tween-80.
The mark [8] stands for this setting: dose: 200.0 mg/kg/injection, schedule: Q01DX009 (ip), vehicle: saline with Tween-80.
Setting [9] is: dose: 25.0 mg/kg/injection, schedule: Q01DX009 (ip), vehicle: saline.
[10] abbreviates: dose: 50.0 mg/kg/injection, schedule: Q01DX009 (ip), vehicle: saline.
The mark [11] stands for this setting: dose: 100.0 mg/kg/injection, schedule: Q01DX009 (ip), vehicle: saline.
Setting [12] is: dose: 200.0 mg/kg/injection, schedule: Q01DX009 (ip), vehicle: saline.
Where [13] appears, read: dose: 400.0 mg/kg/injection, schedule: Q01DX009 (ip), vehicle: saline.
Where [14] appears, read: dose: 12.5 mg/kg/injection, schedule: Q01DX009 (ip), vehicle: saline.
The mark [15] stands for this setting: dose: 25.0 mg/kg/injection, schedule: Q04DX003 (ip), vehicle: saline.
The mark [16] stands for this setting: dose: 6.25 mg/kg/injection, schedule: Q01DX009 (ip), vehicle: saline.

Where “and” joins values, the source holds several entries; their conditions need not be identical. Equal entries are not always repeated. Inconclusive results and toxic doses are left out.

`CC1(C)N=C(N)N=C(N)N1c1ccc(CCCCc2ccc(S(=O)(=O)F)cc2)c(Cl)c1`: the T/C (dose: 0.75 mg/kg/injection, schedule: Q01DX009 (ip), vehicle: saline) is 160 % of control; the T/C (dose: 1.0 mg/kg/injection, schedule: Q01DX009 (ip), vehicle: saline) is 150 % of control; the T/C (dose: 1.5 mg/kg/injection, schedule: Q01DX009 (ip), vehicle: saline) is 151 % of control; the T/C (dose: 1.78 mg/kg/injection, schedule: Q01DX009 (ip), vehicle: saline) was 168 % of control; the T/C (dose: 2.25 mg/kg/injection, schedule: Q01DX009 (ip), vehicle: saline) is 174 % of control; the T/C (dose: 2.66 mg/kg/injection, schedule: Q01DX009 (ip), vehicle: saline) was 174 % of control. Besides, the T/C is 157 % of control (dose: 4.0 mg/kg/injection, schedule: Q01DX009 (ip), vehicle: saline); 174 % of control (dose: 4.4 mg/kg/injection, schedule: Q01DX009 (ip), vehicle: saline); 158 % of control (dose: 6.0 mg/kg/injection, schedule: Q01DX009 (ip), vehicle: saline); 173 % of control (dose: 6.6 mg/kg/injection, schedule: Q01DX009 (ip), vehicle: saline); 201 % of control (dose: 10.0 mg/kg/injection, schedule: Q01DX009 (ip), vehicle: saline); 118 % of control under setting [1]. Further, the T/C runs as follows: (dose: 15.0 mg/kg/injection, schedule: Q01DX009 (ip), vehicle: saline) 204 % of control; (dose: 18.7 mg/kg/injection, schedule: Q01DX009 (ip), vehicle: saline) 195 % of control; (dose: 37.5 mg/kg/injection, schedule: Q01DX009 (ip), vehicle: saline) 245 % of control; under setting [2], 154 % of control; (dose: 75.0 mg/kg/injection, schedule: Q04DX003 (ip), vehicle: saline) 150 % of control.

`CSc1nc(C)c(Br)c(Sc2nc(N)nc3nc[nH]c23)n1`: the T/C was 154 % of control (dose: 66.0 mg/kg/injection, schedule: Q04DX003 (ip), vehicle: saline with Tween-80); 150 % of control (dose: 100.0 mg/kg/injection, schedule: Q04DX003 (ip), vehicle: saline with Tween-80); 150 % of control (dose: 150.0 mg/kg/injection, schedule: Q04DX003 (ip), vehicle: saline with Tween-80).

With `CC(=O)NC(C)C(C)C` (centres undefined), the T/C under setting [3] was 100 % of control, the T/C under setting [4] was 95 % of control and the T/C under setting [5] was 100 % of control.

Take `O=C(O)C1CC2C=CC1C2` (centres undefined): the T/C reads like this: (dose: 12.5 mg/kg/injection, schedule: Q01DX009 (ip), vehicle: saline with Tween-80) 118 % of control; (dose: 25.0 mg/kg/injection, schedule: Q01DX009 (ip), vehicle: saline with Tween-80) 113 % of control; under setting [6], 109 % of control; under setting [7], 110 % of control and 100 % of control; under setting [8], 90 % of control; (dose: 400.0 mg/kg/injection, schedule: Q01DX009 (ip), vehicle: saline with Tween-80) 86 % of control.

Regarding `Cc1ccc(C)c2c1[nH]c1c(C)c3ccncc3c(C)c12`, the T/C was 101 % of control (dose: 25.0 mg/kg/injection, schedule: Q01DX001 (ip), vehicle: saline with Tween-80); 91 % of control (dose: 50.0 mg/kg/injection, schedule: Q01DX001 (ip), vehicle: saline with Tween-80); 96 % of control (dose: 100.0 mg/kg/injection, schedule: Q01DX001 (ip), vehicle: saline with Tween-80).

Take `COc1ccc(/C=C/C(=O)c2ccc3cc(OC)c(OC)cc3c2)cc1OC`: the T/C by setting is: under setting [9], 98 % of control; under setting [10], 91 % of control; under setting [11], 87 % of control; under setting [12], 100 % of control; under setting [13], 91 % of control.

For the molecule `F`, the T/C runs as follows: (dose: 0.25 mg/kg/injection, schedule: Q01DX009 (ip), vehicle: water) 113 % of control; (dose: 0.5 mg/kg/injection, schedule: Q01DX009 (ip), vehicle: water) 95 % of control; (dose: 0.62 mg/kg/injection, schedule: Q01DX009 (ip), vehicle: water) 86 % of control; (dose: 1.25 mg/kg/injection, schedule: Q01DX009 (ip), vehicle: water) 100 % of control; (dose: 2.5 mg/kg/injection, schedule: Q01DX009 (ip), vehicle: water) 95 % of control; (dose: 5.0 mg/kg/injection, schedule: Q01DX009 (ip), vehicle: water) 100 % of control. Moreover, the T/C by setting is: (dose: 6.25 mg/kg/injection, schedule: Q01DX009 (ip), vehicle: water) 100 % of control; (dose: 6.25 mg/kg/injection, schedule: Q04DX003 (ip), vehicle: saline) 100 % of control; under setting [14], 100 % of control; (dose: 12.5 mg/kg/injection, schedule: Q01DX009 (ip), vehicle: water) 100 % of control; under setting [1], 100 % of control; under setting [9], 100 % of control. For the same molecule, the T/C by setting is: (dose: 25.0 mg/kg/injection, schedule: Q01DX009 (ip), vehicle: water) 95 % of control; under setting [15], 100 % of control; (dose: 33.0 mg/kg/injection, schedule: Q04DX003 (ip), vehicle: saline) 104 % of control; under setting [2], 95 % of control.

Consider `COc1cccc2c1CCCC2=O`, for which the T/C was 96 % of control (dose: 50.0 mg/kg/injection, schedule: Q01DX009 (ip), vehicle: Klucel (hydroxypropylcellulose) (HPC)); 104 % of control (dose: 100.0 mg/kg/injection, schedule: Q01DX009 (ip), vehicle: Klucel (hydroxypropylcellulose) (HPC)); 104 % of control (dose: 200.0 mg/kg/injection, schedule: Q01DX009 (ip), vehicle: Klucel (hydroxypropylcellulose) (HPC)).

Take `O=[N+]([O-])c1ccc(/C=[N+](\[O-])CCO)o1`: the T/C is 111 % of control under setting [6], 113 % of control under setting [7] and 111 % of control under setting [8].

With `CCN(CC)CC(C)=C(B1OC(C)(C)C(C)(C)O1)B1OC(C)(C)C(C)(C)O1`, the T/C was 110 % of control (dose: 50.0 mg/kg/injection, schedule: Q01DX001 (ip), vehicle: saline); 105 % of control (dose: 100.0 mg/kg/injection, schedule: Q01DX001 (ip), vehicle: saline); 100 % of control (dose: 200.0 mg/kg/injection, schedule: Q01DX001 (ip), vehicle: saline).

As to `CCC1NC(C)(C)CC1=C(C)C` (centres undefined), the T/C reads like this: (dose: 1.56 mg/kg/injection, schedule: Q01DX009 (ip), vehicle: saline) 104 % of control; (dose: 3.13 mg/kg/injection, schedule: Q01DX009 (ip), vehicle: saline) 104 % of control; under setting [16], 104 % of control.

Consider `CCOC(=O)c1c(C(=O)OCC)c(C)n(NC(=S)NC)c1C`, for which the T/C reads like this: (dose: 75.0 mg/kg/injection, schedule: Q01DX009 (ip), vehicle: saline with Tween-80) 103 % of control; (dose: 150.0 mg/kg/injection, schedule: Q01DX009 (ip), vehicle: saline with Tween-80) 89 % of control; (dose: 300.0 mg/kg/injection, schedule: Q01DX009 (ip), vehicle: saline with Tween-80) 93 % of control.

On to `COc1ccc(NC(=O)CC(C)=O)cc1`, for which the T/C under setting [16] is 98 % of control; the T/C under setting [14] was 91 % of control; the T/C under setting [15] was 111 % of control; the T/C under setting [10] is 108 % of control; the T/C under setting [2] is 102 % of control; the T/C under setting [11] is 110 % of control. Besides, the T/C was 98 % of control under setting [3]; 106 % of control under setting [12]; 116 % of control under setting [4]; 98 % of control under setting [13]; 93 % of control under setting [5].
